Converted amounts (≈) assume the structure as drawn. Read-outs that look alike come from different tables or passages of the source.
Columns and labels:
Type in all cases: physicochemical
[1] = Storage stability (processability assessment), 12 months
Text: There is a risk of Form 2 conversion to hydrate at the typical wet granulation temperature when seeds of hydrate are present.

[2] = Solubility in 7/3 v/v toluene/MeOH
[3] = Slurry form-conversion experiments in organic solvents (relative thermodynamic stability)
Text: Form 1 and Form 2 are monotropically related.
This is evidence that Form 1 is more thermodynamically stable than Form 2.

[4] = Conversion to hydrate risk: slurry in 5% SLS aqueous solution seeded with 5% hydrate seeds, PXRD; details: 20 mg/mL in 5% SLS aqueous solution, 24 hours
Protocol: Slurry experiments in water containing 5% SLS were used to assess the risk of form conversion during wet granulation. Typical wet granulation conditions include drying at 60 to 70° C. for 1.5 to 2 hours.
Slurries containing 20 mg/mL of either Form 1 or Form 2 in 5% sodium lauryl sulfate (SLS) aqueous solution were seeded with 5% hydrate seeds and monitored for form change with PXRD over 24 hours at room temperature and at 80° C.

[5] = 40° C./75% relative humidity (RH)

COc1cc(Nc2nn([C@H]3COCC[C@@H]3C#N)cc2C(N)=O)cc(F)n1 [Form 2, 1-[(3R,4S)-4-cyanotetrahydropyran-3-yl]-3-[(2-fluoro-6-methoxy-4-pyridyl)amino]pyrazole-4-carboxamide]
Physical and chemical stability on storage [1, 5]: physically and chemically stable | Physical and chemical stability on storage ([1]; 55° C.): physically and chemically stable | solubility ([2]; 25 °C): 4700 µg/mL (≈ 13 mM) | solubility ([2]; 40 °C): 9300 µg/mL (≈ 25.8 mM) | solubility ([2]; 60 °C): 15600 µg/mL (≈ 43.3 mM) | Form conversion in slurry seeded with Form 1 ([3]; 2-Me-THF, Ethyl Acetate, MeOH or MeOH/toluene (70:30 v/v), 50° C., seeded with Form 1 at 14 days, 28 days total): full or conversion to Form 1 | Form conversion in slurry ([3]; Ethyl Acetate and Isopropyl Acetate, 25° C., after 28 days): Partial conversion | Form conversion in competitive slurry ([3]; ~10 mg each of Form 1 and Form 2 in 1 mL MeOH, 50° C., after 4 days): full conversion to Form 1 | Hydrate peak growth (PXRD) ([4]; 80° C.): no hydrate peak growth was observed | Hydrate peak growth (PXRD) ([4]; room temperature): hydrate peak growth was observed

COc1cc(Nc2nn([C@H]3COCC[C@@H]3C#N)cc2C(N)=O)cc(F)n1 [Form 1, 1-[(3R,4S)-4-cyanotetrahydropyran-3-yl]-3-[(2-fluoro-6-methoxy-4-pyridyl)amino]pyrazole-4-carboxamide]
Physical and chemical stability on storage [1, 5]: physically and chemically stable | Physical and chemical stability on storage ([1]; 55° C.): physically and chemically stable | solubility ([2]; 25 °C, organic solvent or mixture, 25 °C, read-out: Solubility): 3400 µg/mL (≈ 9.44 mM) | solubility ([2]; 40 °C, organic solvent or mixture, 40 °C, read-out: Solubility): 6600 µg/mL (≈ 18.3 mM) | solubility ([2]; 60 °C, organic solvent or mixture, 60 °C, read-out: Solubility): 12500 µg/mL (≈ 34.7 mM) | Relative thermodynamic stability ([3]; Form 1 versus Form 2, monotropically related): more stable than Form 2 | Form after slurry ([3]; slurried in MeOH, 3 weeks, room temperature): remained as Form 1 | Hydrate peak growth (PXRD) ([4]; 80° C.): No hydrate peak growth observed | Hydrate peak growth (PXRD) ([4]; room temperature): No hydrate peak growth observed

COc1cc(Nc2nn([C@H]3COCC[C@@H]3C#N)cc2C(N)=O)cc(F)n1 [Hydrate, 1-[(3R,4S)-4-cyanotetrahydropyran-3-yl]-3-[(2-fluoro-6-methoxy-4-pyridyl)amino]pyrazole-4-carboxamide]
Relative thermodynamic stability ([3]; in aqueous solutions): most stable form in aqueous solutions

— US12018020B2, “Crystalline forms of 1-[(3R,4S)-4-cyanotetrahydropyran-3-yl]-3-[(2-fluoro-6-methoxy-4-pyridyl)amino]pyrazole-4-carboxamide” (Intervet Inc., priority 2018, dated 2024)
